We go through ten compounds from PubChem BioAssay (NCI).

Holding throughout (experiment): NCI anticancer screen, dose series, 48 h
Experiment [1] relates to HCT-15 colon.
The subject of experiment [2] is HL-60(TB) leukemia.
Experiment [3] relates to OVCAR-8 ovarian.
Experiment [4] concerns RPMI-8226 leukemia.
Experiment [5] deals with SF-295 CNS.
The subject of experiment [6] is SF-539 CNS.
Experiment [7] has as its system SNB-19 CNS.
Experiment [8] relates to SR leukemia.
Experiment [9] relates to HOP-62 NSCLC.
In experiment [10] the test system is NCI/ADR-RES ovarian.

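Cells were grown in 96-well plates and exposed to each compound for 48 hours at five concentrations; endpoints were interpolated linearly between bracketing concentrations, or set to the highest concentration if not reached. Abbreviation: GI50, concentration required for 50% inhibition of growth. TGI: total growth inhibition.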

Turning to `N=C(N)c1csc([C@@H]2O[C@H](CO)[C@@H](O)[C@H]2O)n1`, the TGI in experiment [1], in experiment [2], in experiment [3], in experiment [4], in experiment [5] and in [6] was more than 100 µM each time. Moreover, the TGI in [7] and in experiment [8] was more than 100 µM in each case.

In the case of `c1cn2cc(-c3ccc4ncn(C5CCCCC5)c4c3)nc(-c3ccc4c(c3)ncn4C3CCCCC3)c2n1`, the GI50 in experiment [2] is 1.84 µM; in experiment [9], 2 µM; in experiment [10], 2.34 µM; in [3], 2.55 µM; in experiment [4] it was 0.806 µM; in experiment [5] it was 1.71 µM. Besides, the GI50 in experiment [6] is 1.63 µM; in experiment [7], 2.11 µM; in experiment [8], 2.87 µM. Moreover, the TGI in experiment [2] came out at 4.57 µM; in experiment [9], 3.72 µM; in experiment [10], 7.33 µM; in experiment [3], 9.49 µM; in [4] it was 3.99 µM; in experiment [5], 3.15 µM. The TGI in [6] was 3.15 µM; in experiment [7], 4.95 µM; in experiment [8] it was more than 100 µM.

For `CCC(=O)NC(Nc1ccc(O)cc1)(C(F)(F)F)C(F)(F)F`, the TGI is more than 100 µM in experiment [1]; 46.5 µM in experiment [2]; more than 100 µM in experiment [9]; more than 100 µM in experiment [4]; more than 100 µM in [6]; more than 100 µM in experiment [7]. Moreover, the TGI in [8] was more than 100 µM.

For the compound `Nc1ccc2c3c(n(CCCCl)c(=O)c2c1)-c1cc2c(cc1C3=O)OCO2`, the GI50 is more than 100 µM in experiment [1]; more than 100 µM in experiment [2]; more than 100 µM in [10]; more than 100 µM in experiment [3]; more than 100 µM in experiment [4]; 0.349 µM in experiment [5]. Further, the GI50 was more than 100 µM in experiment [7] and 0.0268 µM in experiment [8]. Moreover, the TGI in [1], in [2], in experiment [10], in [3], in experiment [4] and in experiment [5] was more than 100 µM throughout. Also, the TGI in experiment [7] and in experiment [8] was more than 100 µM in each case.

As to `CC(C)(C)[Si](C)(C)OCC1CCC(n2cnc3c(N)ncnc32)O1` (centres undefined), the TGI in [1], in experiment [2], in [9], in [3], in [4] and in experiment [5] was more than 100 µM throughout. The TGI in experiment [7] was more than 100 µM.

As for `NC(CCP(=O)(O)CCC1C=CC=CC1)C(=O)O` (centres undefined), the TGI in experiment [1], in experiment [2], in experiment [10], in [3], in [4] and in experiment [5] was more than 100 µM throughout. Besides, the TGI in [6], in experiment [7] and in [8] was more than 100 µM throughout.

On to `COC(=O)c1ccc(N=NN(C)COc2ccc([N+](=O)[O-])cc2)cc1`, for which the TGI is more than 100 µM in [1]; 52.5 µM in experiment [2]; more than 100 µM in experiment [9]; more than 100 µM in experiment [10]; more than 100 µM in experiment [3]; more than 95.3 µM in experiment [4]. For the same compound, the TGI in experiment [5], in experiment [6] and in experiment [7] was more than 100 µM each time.

With `COc1cc(C2=C(C#N)C(N)OC3=C2COc2ccccc23)cc(OC)c1OC` (centres undefined), the TGI in experiment [1] is more than 100 µM; in experiment [2], more than 100 µM; in experiment [9], 20.2 µM; in experiment [10] it was more than 100 µM; in experiment [4], more than 100 µM; in [6], 50.5 µM. Besides, the TGI was 30.6 µM in experiment [7] and more than 100 µM in [8].

For the compound `NNc1nc2ccccc2s1`, the TGI in experiment [1], in experiment [2], in experiment [10], in experiment [3], in [4] and in [6] was more than 100 µM in each case. Besides, the TGI in experiment [7] and in [8] was more than 100 µM each time.

As for `O=C(O)C1Cc2c([nH]c3ccccc23)C=N1` (centres undefined), the TGI in [1], in experiment [2], in [9], in experiment [10], in experiment [3] and in experiment [4] was more than 100 µM each time. The TGI in [5], in experiment [6] and in [7] was more than 100 µM each time.
